Source: US20260206761A1, “HETEROARYL-TRIAZOLE COMPOUNDS AS PESTICIDES” (Bayer Aktiengesellschaft, priority 2019, published 2026)

Tests used:
Type in all cases: in vivo
[1] = system: green peach aphid (Myzus persicae); test: Myzus persicae spray test; conditions: 120 h, after 5 days; for mortality at 100 g/ha: application rate 100 g/ha; for mortality at 500 g/ha: application rate 500 g/ha
In short: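 Chinese cabbage leaf disks carrying all instars of M. persicae sprayed with compound in acetone/DMF, diluted in water with 1000 ppm alkylarylpolyglycol ether emulsifier. Percent mortality scored after 5 days (100% = all aphids killed).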

[2] = system: adult unfed cat fleas (Ctenocephalides felis); test: Ctenocephalides felis oral test; conditions: 48 h, read-out: activity (mortality)
In short: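 About 20 adult unfed fleas fed through parafilm on cattle blood containing compound (DMSO stock diluted in blood), blood held at 37 °C and fleas at room temperature. Mortality (%) scored after 2 days.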

[3] = system: adult engorged female ticks (Rhipicephalus microplus); test: Rhipicephalus (Boophilus) microplus injection test; conditions: 168 h, egg deposition after 7 days, read-out: activity (efficacy: infertile eggs); for pest or weed control at 4 pg: application rate 4 pg/animal; for pest or weed control at 0.02 mg: application rate 20 μg/animal
In short: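 Compound in DMSO (10 mg per 0.5 mL, then diluted with DMSO to test concentration); 1 μL injected into the abdomen of each of five engorged females, then held in a climate chamber. Fertile egg deposition checked at 7 days; efficacy 100% = all eggs infertile, 0% = all fertile.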

[4] = system: adult cat fleas (Ctenocephalides felis); test: Ctenocephalides felis in-vitro contact test, adult cat flea; conditions: application rate 5 μg/cm^2 (=500 g/ha), after 48 hours, read-out: activity (efficacy: fleas dead or moribund)
In short: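 Efficacy, as % of fleas dead or moribund, was read 48 h after 5-10 adult cat fleas were confined in glass tubes whose walls carried dried compound film (900 ppm, […]). Fleas failing to escape upward from a 45-50° C plate within 5 min counted as dead or moribund.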

[5] = system: Rhipicephalus microplus larvae (strain Parkhurst, resistant against synthetic pyrethroids); test: Rhipicephalus (Boophilus) microplus in-vitro contact test, larval cattle tick; conditions: after 48 hours, read-out: activity (efficacy: larvae dead or moribund); for pest or weed control at 100 g/ha: application rate 1 pg/cm^2 (=100 g/ha); for pest or weed control at 500 g/ha: application rate 5 pg/cm^2 (=500 g/ha)
In short: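 Larvae (20-50 per tube) exposed to dry compound film on glass tube walls, 5 μg/cm^2 at 900 ppm, applied from acetone. After 48 h at 27° C./85% RH, tubes tapped and negative geotaxis scored; efficacy as percent dead or moribund larvae.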

[6] = system: fall armyworm larvae (Spodoptera frugiperda); test: Spodoptera frugiperda spray test; conditions: 168 h, read-out: activity (mortality)
In short: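 Larvae of fall armyworm placed on dried maize leaf sections previously sprayed with emulsified compound (acetone/DMF solvent, water with 1000 ppm emulsifier). Percent of caterpillars killed recorded on day 7, 0–100% scale.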

[7] = system: green peach aphid (Myzus persicae); test: Myzus persicae oral test; conditions: 120 h, application rate 4 ppm, after 5 days
In short: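 Five-day oral feeding assay measuring percent mortality of a mixed aphid population that draws compound-containing sugared IPL41 medium through sealing parafilm; the test preparation derives from 1 part compound per 100 parts acetone, diluted with water.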

[8] = system: larvae of the southern green stink bug (Nezara viridula); test: Nezara viridula spray test; conditions: 96 h, after 4 days; for mortality at 100 g/ha: application rate 100 g/ha; for mortality at 500 g/ha: application rate 500 g/ha
In short: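 Larva-infested barley (Hordeum vulgare) plants received a spray of test solution prepared from an acetone/DMF concentrate diluted in emulsifier-containing water (1000 ppm). Percent kill read 4 days later; 0% means no stink bugs dead.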

CC(C)c1nc([C@H](C)NC(=O)c2cc(OC(F)(F)F)cc(C3CC3)c2)n(-c2ccc(C#N)cn2)n1 [I-23]
mortality at 100 g/ha [1]: 90% | mortality at 100 ppm [2]: 100% | pest or weed control at 4 pg [3]: 100% | pest or weed control at 0.02 mg [3]: 100% | pest or weed control at 5 µg/cm2 [4]: 100% | pest or weed control at 100 g/ha [5]: 100% | pest or weed control at 500 g/ha [5]: 100% | mortality at 100 g/ha [6]: 100%

C[C@H](NC(=O)c1cc(Cl)cc(S(=O)(=O)C2CC2)c1)c1nc(C2CC2)nn1-c1ncc(Cl)cn1 [I-25]
mortality at 100 g/ha [1]: 100% | mortality at 4 ppm [7]: 100% | mortality at 100 ppm [2]: 100% | pest or weed control at 4 pg [3]: 100% | pest or weed control at 0.02 mg [3]: 100% | pest or weed control at 5 µg/cm2 [4]: 100% | mortality at 100 g/ha [8]: 100% | pest or weed control at 100 g/ha [5]: 100% | pest or weed control at 500 g/ha [5]: 100% | mortality at 100 g/ha [6]: 100%

CC(NC(=O)c1cc(C(F)(F)F)cc(S(C)(=O)=O)c1)c1nc(Cl)nn1-c1ncccn1 (stereo not shown) [I-30]
mortality at 100 g/ha [1]: 90% | mortality at 4 ppm [7]: 100% | mortality at 100 ppm [2]: 100% | pest or weed control at 4 pg [3]: 100% | pest or weed control at 0.02 mg [3]: 100% | pest or weed control at 5 µg/cm2 [4]: 100% | mortality at 100 g/ha [8]: 100% | pest or weed control at 100 g/ha [5]: 100% | pest or weed control at 500 g/ha [5]: 100%

CSc1cc(C#N)cc(C(=O)N[C@@H](C)c2ncnn2-c2ccc(C#N)cn2)c1 [II-3]
mortality at 100 g/ha [1]: 100% | mortality at 500 g/ha [1]: 100% | mortality at 4 ppm [7]: 100% | mortality at 100 ppm [2]: 100% | pest or weed control at 4 pg [3]: 100% | pest or weed control at 0.02 mg [3]: 100% | pest or weed control at 5 µg/cm2 [4]: 100% | mortality at 100 g/ha [8]: 100% | mortality at 500 g/ha [8]: 100% | pest or weed control at 100 g/ha [5]: 90% | pest or weed control at 500 g/ha [5]: 90% | mortality at 500 g/ha [6]: 100%

C[C@H](NC(=O)c1cc(C(F)(F)F)cc(S(C)(=O)=O)c1)c1ncnn1-c1ncccn1 [II-13]
mortality at 100 g/ha [1]: 90% | mortality at 500 g/ha [1]: 100% | mortality at 4 ppm [7]: 100% | pest or weed control at 4 pg [3]: 100% | pest or weed control at 0.02 mg [3]: 100% | pest or weed control at 5 µg/cm2 [4]: 100% | mortality at 100 g/ha [8]: 100% | mortality at 500 g/ha [8]: 100% | pest or weed control at 500 g/ha [5]: 80% | mortality at 500 g/ha [6]: 100%

C[C@H](NC(=O)c1cc(OC(F)(F)F)cc(C2CC2)c1)c1ncnn1-c1ccccn1 [II-22]
mortality at 500 g/ha [1]: 90% | mortality at 4 ppm [7]: 100% | mortality at 100 ppm [2]: 100% | pest or weed control at 4 pg [3]: 100% | pest or weed control at 0.02 mg [3]: 100% | pest or weed control at 5 µg/cm2 [4]: 100% | mortality at 500 g/ha [8]: 100% | pest or weed control at 100 g/ha [5]: 100% | pest or weed control at 500 g/ha [5]: 100% | mortality at 100 g/ha [6]: 100% | mortality at 500 g/ha [6]: 100%

C[C@H](NC(=O)c1cc(C2CC2)cc(C(F)(F)F)c1)c1ncnn1-c1ccc(C#N)cn1 [II-26]
mortality at 100 g/ha [1]: 90% | mortality at 500 g/ha [1]: 100% | mortality at 4 ppm [7]: 100% | pest or weed control at 4 pg [3]: 100% | pest or weed control at 0.02 mg [3]: 100% | pest or weed control at 5 µg/cm2 [4]: 90% | mortality at 100 g/ha [8]: 100% | mortality at 500 g/ha [8]: 100% | pest or weed control at 100 g/ha [5]: 100% | pest or weed control at 500 g/ha [5]: 100% | mortality at 100 g/ha [6]: 100% | mortality at 500 g/ha [6]: 100%

C[C@H](NC(=O)c1cc(C#N)cc(S(C)(=O)=O)c1)c1ncnn1-c1ccc(Cl)cn1 [II-29]
mortality at 100 g/ha [1]: 90% | mortality at 500 g/ha [1]: 100% | mortality at 4 ppm [7]: 100% | mortality at 100 ppm [2]: 100% | pest or weed control at 4 pg [3]: 100% | pest or weed control at 0.02 mg [3]: 100% | pest or weed control at 5 µg/cm2 [4]: 100% | mortality at 100 g/ha [8]: 100% | mortality at 500 g/ha [8]: 100% | pest or weed control at 100 g/ha [5]: 100% | pest or weed control at 500 g/ha [5]: 100% | mortality at 100 g/ha [6]: 83% | mortality at 500 g/ha [6]: 100%

Cc1nc([C@H](C)NC(=O)c2cc(Cl)cc(S(=O)(=O)C(F)F)c2)n(-c2ccc(C#N)cn2)n1 [II-35]
mortality at 100 g/ha [1]: 100% | mortality at 500 g/ha [1]: 100% | mortality at 4 ppm [7]: 100% | mortality at 100 ppm [2]: 100% | pest or weed control at 4 pg [3]: 100% | pest or weed control at 0.02 mg [3]: 100% | pest or weed control at 5 µg/cm2 [4]: 100% | mortality at 100 g/ha [8]: 100% | mortality at 500 g/ha [8]: 100% | pest or weed control at 100 g/ha [5]: 100% | pest or weed control at 500 g/ha [5]: 100%

Cc1nc([C@H](C)NC(=O)c2cc(Cl)cc(C3(C#N)CC3)c2)n(-c2ccc(C#N)cn2)n1 [II-38]
mortality at 100 g/ha [1]: 90% | mortality at 4 ppm [7]: 100% | mortality at 100 ppm [2]: 100% | pest or weed control at 4 pg [3]: 100% | pest or weed control at 0.02 mg [3]: 100% | pest or weed control at 5 µg/cm2 [4]: 100% | pest or weed control at 100 g/ha [5]: 100% | pest or weed control at 500 g/ha [5]: 100% | mortality at 100 g/ha [6]: 100%

C[C@H](NC(=O)c1cc(Cl)cc(S(C)(=O)=O)c1)c1ncnn1-c1ncc(OC(F)F)cn1 [II-42]
mortality at 100 g/ha [1]: 90% | mortality at 4 ppm [7]: 100% | mortality at 100 ppm [2]: 100% | pest or weed control at 4 pg [3]: 100% | pest or weed control at 0.02 mg [3]: 100% | pest or weed control at 5 µg/cm2 [4]: 100% | mortality at 100 g/ha [8]: 100% | pest or weed control at 100 g/ha [5]: 100% | pest or weed control at 500 g/ha [5]: 100%

Cc1nc([C@H](C)NC(=O)c2cc(C(F)(F)F)cc(S(C)(=O)=O)c2)n(-c2ccc(C#N)cn2)n1 [II-52]
mortality at 100 g/ha [1]: 90% | mortality at 100 ppm [2]: 100% | pest or weed control at 4 pg [3]: 100% | pest or weed control at 5 µg/cm2 [4]: 100% | mortality at 100 g/ha [8]: 100% | pest or weed control at 100 g/ha [5]: 100% | pest or weed control at 500 g/ha [5]: 100% | mortality at 100 g/ha [6]: 100%

C[C@H](NC(=O)c1cc(C#N)cc(C2CC2)c1)c1ncnn1-c1ncccn1 [II-54]
mortality at 100 g/ha [1]: 100% | mortality at 4 ppm [7]: 100% | mortality at 100 ppm [2]: 100% | pest or weed control at 5 µg/cm2 [4]: 100% | mortality at 100 g/ha [8]: 100% | pest or weed control at 100 g/ha [5]: 90% | pest or weed control at 500 g/ha [5]: 80% | mortality at 100 g/ha [6]: 83%
